Experimental data from US10058550B2, “Methods of treating heart failure” (priority 2015, dated 2018).

Target: human APJ receptor (Homo sapiens (Human), UniProt P35414)
Test: biochemical
Type: biochemical
Settings: read-out: Activity hAPJ SPA EC50 IP
Summary of the method: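 Agonist-stimulated [35S]GTPγS (0.2 nM) binding was read by SPA after 90 min at room temperature. Buffer: 20 mM HEPES pH 7.5 with 5 mM MgCl2, 200 mM NaCl, 3 μM GDP, 0.1% BSA; membranes were from a stable human APJ CHO line. EC50 values are averages of independent runs, fitted by non-linear regression.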

Sequence of human APJ receptor (P35414 whole entry): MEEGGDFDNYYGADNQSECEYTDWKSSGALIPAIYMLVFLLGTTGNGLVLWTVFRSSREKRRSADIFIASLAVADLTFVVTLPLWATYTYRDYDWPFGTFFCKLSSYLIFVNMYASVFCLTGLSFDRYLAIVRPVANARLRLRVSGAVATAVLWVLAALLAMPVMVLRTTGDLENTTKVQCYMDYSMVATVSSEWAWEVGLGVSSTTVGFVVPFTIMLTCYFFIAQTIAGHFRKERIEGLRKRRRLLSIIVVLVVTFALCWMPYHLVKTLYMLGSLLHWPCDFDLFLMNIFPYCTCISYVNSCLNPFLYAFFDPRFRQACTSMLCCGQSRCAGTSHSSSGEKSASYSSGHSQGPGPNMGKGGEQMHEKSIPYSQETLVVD

Compound	EC50
COc1cccc(OC)c1-n1c(NS(=O)(=O)[C@H](C)[C@@H](OC)c2ncnn2C)nnc1-c1cncc(C)c1 (mixture of isomers) [Example 637.0, (1S,2R)-N-(4-(2,6-dimethoxyphenyl)-5-(5-methylpyridin-3-yl)-4H-1,2,4-triazol-3-yl)-1-methoxy-1-(1-methyl-1H-1,2,4-triazol-5-yl)propane-2-sulfonamide and (1R,2S)-N-(4-(2,6-dimethoxyphenyl)-5-(5-methylpyridin-3-yl)-4H-1,2,4-triazol-3-yl)-1-methoxy-1-(1-methyl-1H-1,2,4-triazol-5-yl)propane-2-sulfonamide]	150 nM
Cc1cnc([C@@H](C)[C@H](C)S(=O)(=O)Nc2nnc(-c3cncc(C)c3)n2-c2c(OC(F)F)cccc2OC(F)F)nc1 [Example 763.0, (2S,3R)—N-(4-(2,6-bis(difluoromethoxy)phenyl)-5-(5-methylpyridin-3-yl)-4H-1,2,4-triazol-3-yl)-3-(5-methylpyrimidin-2-yl)butane-2-sulfonamide]	0.71 nM
COc1cccc(OC)c1-n1c(NS(=O)(=O)CCc2ccc(F)cc2C#N)nnc1-c1cncc(Cl)c1 [Example 181.0, N-(5-(5-chloro-3-pyridinyl)-4-(2,6-dimethoxyphenyl)-4H-1,2,4-triazol-3-yl)-2-(2-cyano-4-fluorophenyl)ethanesulfonamide]	12 nM
COc1cccc(-c2nnc(NS(=O)(=O)[C@@H](C)[C@H](OC)c3ncc(C)cn3)n2-c2cccc(F)c2)n1 [Example 47.0, (1R,2S)-N-(4-(3-fluorophenyl)-5-(6-methoxy-2-pyridinyl)-4H-1,2,4-triazol-3-yl)-1-methoxy-1-(5-methyl-2-pyrimidinyl)-2-propanesulfonamide]	8.8 nM
COc1cccc(-c2nnc(NS(=O)(=O)[C@@H](C)[C@H](OC)c3ncc(C)cn3)n2-c2ccc(F)c(C(F)(F)F)c2)n1 [Example 63.0, (1R,2S)-N-(4-(4-fluoro-3-(trifluoromethyl)phenyl)-5-(6-methoxy-2-pyridinyl)-4H-1,2,4-triazol-3-yl)-1-methoxy-1-(5-methyl-2-pyrimidinyl)-2-propanesulfonamide]	350 nM
CCO[C@H](c1ncc(F)cn1)[C@H](C)S(=O)(=O)Nc1nnc(-c2cccc(OC)n2)n1-c1ccccc1 [Example 50.0, (1R,2S)-1-ethoxy-1-(5-fluoro-2-pyrimidinyl)-N-(5-(6-methoxy-2-pyridinyl)-4-phenyl-4H-1,2,4-triazol-3-yl)-2-propanesulfonamide]	9.3 nM
COc1cccc(-c2nnc(NS(=O)(=O)[C@@H](C)[C@H](O)c3ccc(F)cc3)n2-c2c(OC)cccc2OC)n1 (single isomer, unassigned) [Example 287.0]	14 nM
COc1cccc(OC)c1-n1c(NS(=O)(=O)[C@H](C)[C@@H](OCCO)c2ncc(C)cn2)nnc1-c1cncc(C)c1 (single isomer, unassigned) [Example 395.0, (1S,2R)—N-(4-(2,6-dimethoxyphenyl)-5-(5-methylpyridin-3-yl)-4H-1,2,4-triazol-3-yl)-1-(2-hydroxyethoxy)-1-(5-methylpyrimidin-2-yl)propane-2-sulfonamide or (1R,2S)—N-(4-(2,6-dimethoxyphenyl)-5-(5-methylpyridin-3-yl)-4H-1,2,4-triazol-3-yl)-1-(2-hydroxyethoxy)-1-(5-methylpyrimidin-2-yl)propane-2-sulfonamide]	0.11 nM
COc1cc(C)cc(-c2nnc(NS(=O)(=O)[C@@H](C)[C@H](OC)c3ncc(C)cn3)n2-c2c(OC)cccc2OC)n1 [Example 179.0, (1R,2S)-N-(4-(2,6-dimethoxyphenyl)-5-(6-methoxy-4-methylpyridin-2-yl)-4H-1,2,4-triazol-3-yl)-1-methoxy-1-(5-methylpyrimidin-2-yl)propane-2-sulfonamide]	4.8 nM
COc1cccc(OC)c1-n1c(NS(=O)(=O)[C@H](C)[C@@H](O)c2cnc(C)cn2)nnc1-c1cncc(C)c1 (single isomer, unassigned) [Example 569.0, (1S,2R)—N-(4-(2,6-dimethoxyphenyl)-5-(5-methyl-3-pyridinyl)-4H-1,2,4-triazol-3-yl)-1-hydroxy-1-(5-methyl-2-pyrazinyl)-2-propanesulfonamide or (1R,2S)—N-(4-(2,6-dimethoxyphenyl)-5-(5-methyl-3-pyridinyl)-4H-1,2,4-triazol-3-yl)-1-hydroxy-1-(5-methyl-2-pyrazinyl)-2-propanesulfonamide]	0.26 nM
COc1cnc([C@@H](OC)[C@@H](C)S(=O)(=O)Nc2nnc(-c3cncc(C)c3)n2-c2c(OC)cccc2OC)nc1 [Example 687.0, (1R,2R)-N-(4-(2,6-dimethoxyphenyl)-5-(5-methyl-3-pyridinyl)-4H-1,2,4-triazol-3-yl)-1-methoxy-1-(5-methoxy-2-pyrimidinyl)-2-propanesulfonamide 2,2,2-trifluoroacetate]	4.7 nM
COc1cccc(-c2nnc(NS(=O)(=O)[C@@H](C)[C@H](OC)c3ncc(C)cn3)n2-c2ccccc2Cl)n1 (atropisomer, axis not shown; (P)) [Example 69.0, (1R,2S,P)-N-(4-(2-chlorophenyl)-5-(6-methoxy-2-pyridinyl)-4H-1,2,4-triazol-3-yl)-1-methoxy-1-(5-methyl-2-pyrimidinyl)-2-propanesulfonamide and (1R,2S,M)-N-(4-(2-chlorophenyl)-5-(6-methoxy-2-pyridinyl)-4H-1,2,4-triazol-3-yl)-1-methoxy-1-(5-methyl-2-pyrimidinyl)-2-propanesulfonamide]	2.1 nM
COc1cccc(OC)c1-n1c(NS(=O)(=O)CCc2ccc(F)cc2C#N)nnc1-c1cncc(C)c1 [Example 621.0, 2-(2-cyano-4-fluorophenyl)-N-(4-(2,6-dimethoxyphenyl)-5-(5-methyl-3-pyridinyl)-4H-1,2,4-triazol-3-yl)ethanesulfonamide]	0.84 nM
COc1cccc(-c2nnc(NS(=O)(=O)C[C@@H](O)c3ccc(C#N)cc3S(C)(=O)=O)n2-c2c(OC)cccc2OC)n1 (single isomer, unassigned) [Example 482.0, (2S)-2-(4-cyano-2-(methylsulfonyl)phenyl)-N-(4-(2,6-dimethoxyphenyl)-5-(6-methoxy-2-pyridinyl)-4H-1,2,4-triazol-3-yl)-2-hydroxyethanesulfonamide or (2R)-2-(4-cyano-2-(methylsulfonyl)phenyl)-N-(4-(2,6-dimethoxyphenyl)-5-(6-methoxy-2-pyridinyl)-4H-1,2,4-triazol-3-yl)-2-hydroxyethanesulfonamide]	0.2 nM
COc1cccc(OC)c1-n1c(NS(=O)(=O)[C@@H](C)[C@@H](OCCO)c2ncc(C)cn2)nnc1-c1cncc(C)c1 (single isomer, unassigned) [Example 408.0, (1S,2S)—N-(4-(2,6-dimethoxyphenyl)-5-(5-methylpyridin-3-yl)-4H-1,2,4-triazol-3-yl)-1-(2-hydroxyethoxy)-1-(5-methylpyrimidin-2-yl)propane-2-sulfonamide or (1R,2R)—N-(4-(2,6-dimethoxyphenyl)-5-(5-methylpyridin-3-yl)-4H-1,2,4-triazol-3-yl)-1-(2-hydroxyethoxy)-1-(5-methylpyrimidin-2-yl)propane-2-sulfonamide]	0.88 nM
COc1cccc(OC)c1-n1c(NS(=O)(=O)[C@@H]2C[C@H](OC)CN(c3ncc(F)cn3)C2)nnc1-c1cccnc1 (stereo in doubt) [Example 818.0, (3R,5S)-N-(4-(2,6-dimethoxyphenyl)-5-(3-pyridinyl)-4H-1,2,4-triazol-3-yl)-1-(5-fluoro-2-pyrimidinyl)-5-methoxy-3-piperidinesulfonamide, (3S,5R)-N-(4-(2,6-dimethoxyphenyl)-5-(3-pyridinyl)-4H-1,2,4-triazol-3-yl)-1-(5-fluoro-2-pyrimidinyl)-5-methoxy-3-piperidinesulfonamide]	110 nM
COc1cccc(-c2nnc(NS(=O)(=O)[C@@H](C)[C@H](O)c3ccc(F)cc3F)n2-c2c(OC)cccc2OC)n1 (single isomer, unassigned) [Example 280.0]	0.27 nM
COc1ncnc(OC)c1-n1c(NS(=O)(=O)[C@@H](C)[C@H](C)c2cnc(C)cn2)nnc1-c1ccccn1 [Example 773.0, (2S,3R)-N-(4-(4,6-dimethoxy-5-pyrimidinyl)-5-(2-pyridinyl)-4H-1,2,4-triazol-3-yl)-3-(5-methyl-2-pyrazinyl)-2-butanesulfonamide]	14 nM
COc1cccc(-c2nnc(NS(=O)(=O)CCc3ccc(F)cc3C#N)n2-c2c(OC)cccc2OC)n1 [Example 200.0, 2-(2-cyano-4-fluorophenyl)-N-(4-(2,6-dimethoxyphenyl)-5-(6-methoxy-2-pyridinyl)-4H-1,2,4-triazol-3-yl)ethanesulfonamide]	0.57 nM
COc1cccc(-c2nnc(NS(=O)(=O)[C@@H](C)[C@H](O)c3ccc(F)cc3S(C)(=O)=O)n2-c2c(OC)cccc2OC)n1 (single isomer, unassigned) [Example 289.0, (1R,2S)—N-(4-(2,6-dimethoxyphenyl)-5-(6-methoxypyridin-2-yl)-4H-1,2,4-triazol-3-yl)-1-(4-fluoro-2-(methylsulfonyl)phenyl)-1-hydroxypropane-2-sulfonamide or (1S,2R)—N-(4-(2,6-dimethoxyphenyl)-5-(6-methoxypyridin-2-yl)-4H-1,2,4-triazol-3-yl)-1-(4-fluoro-2-(methylsulfonyl)phenyl)-1-hydroxypropane-2-sulfonamide]	11 nM
COc1cccc(-c2nnc(NS(=O)(=O)[C@H](C)[C@@H](O)C(C)(C)C)n2-c2c(OC)cccc2OC)n1 (mixture of isomers) [Example 433.0]	42 nM
COc1ncnc(OC)c1-n1c(NS(=O)(=O)[C@@H](C)[C@H](C)c2cnc(C)cn2)nnc1-c1cccnc1 [Example 806.0, (2S,3R)-N-(4-(4,6-dimethoxy-5-pyrimidinyl)-5-(3-pyridinyl)-4H-1,2,4-triazol-3-yl)-3-(5-methyl-2-pyrazinyl)-2-butanesulfonamide]	19 nM
